Experimental data: patent US6447794B2, “Stomach-action molluscicides” (priority 1996, dated 2002)

Experiments:
[1] = tested on: Deroceras reticulatum; conditions: on wet soil after 10 days; cited from earlier work
[2] = tested on: Deroceras reticulatum; assay: preliminary trials, contact poison on a smooth glass surface; assay type: in vivo
Protocol: (§1) Subsequent trials compared the effective toxicity of methiocarb, metaldehyde bait pellets and ferric EDTA pellets and ferric EDTA bait powder to Helix aspersa and the effective toxicity of ferric EDTA to Deroceras reticulatum. Limited trials were carried out on Theba pisana (the white Italian snail), Cernuella virgata (the vineyard snail), Limax maximus and Cochlicella spp.

[3] = tested on: Helix apersa; assay: as above; assay type: in vivo, Helix aspersa
Protocol: as §1

SMILES | toxicity relative to Iron(III) EDTA [1] | toxicity as a contact poison [2] | toxicity as a contact poison [3]
CC(=O)/C=C(/C)[O-].CC(=O)/C=C(/C)[O-].CC(=O)/C=C(/C)[O-].[Fe+3] [Iron(III) 2,4-pentanedionate] | about twice to three times as toxic |  | 
O=C([O-])CN(CCN(CC(=O)[O-])CC(=O)[O-])CC(=O)[O-].[Fe+3].[Na+] [ferric EDTA, Ferric sodium EDTA] |  | toxic | toxic
